Results reported in patent US12497411B2, “Muscarinic acetylcholine receptor subtype 4 antagonists in the treatment of anemia” (COLD SPRING HARBOR LABORATORY, priority 2019, dated 2025).

Tests used:
[1] = molecular target: T1, human recombinant CHRM3 receptor (Homo sapiens, UniProt P20309); assay: Radioligand binding assay, CHRM3; settings: [3H]4-DAMP (0.2 nM), CHO cell membranes, 60 minutes at room temperature; read-out: Ki M3
T1 construct: expressed in transfected cells; host or cells: CHO cells (membranes)
T1 sequence (P20309 whole entry): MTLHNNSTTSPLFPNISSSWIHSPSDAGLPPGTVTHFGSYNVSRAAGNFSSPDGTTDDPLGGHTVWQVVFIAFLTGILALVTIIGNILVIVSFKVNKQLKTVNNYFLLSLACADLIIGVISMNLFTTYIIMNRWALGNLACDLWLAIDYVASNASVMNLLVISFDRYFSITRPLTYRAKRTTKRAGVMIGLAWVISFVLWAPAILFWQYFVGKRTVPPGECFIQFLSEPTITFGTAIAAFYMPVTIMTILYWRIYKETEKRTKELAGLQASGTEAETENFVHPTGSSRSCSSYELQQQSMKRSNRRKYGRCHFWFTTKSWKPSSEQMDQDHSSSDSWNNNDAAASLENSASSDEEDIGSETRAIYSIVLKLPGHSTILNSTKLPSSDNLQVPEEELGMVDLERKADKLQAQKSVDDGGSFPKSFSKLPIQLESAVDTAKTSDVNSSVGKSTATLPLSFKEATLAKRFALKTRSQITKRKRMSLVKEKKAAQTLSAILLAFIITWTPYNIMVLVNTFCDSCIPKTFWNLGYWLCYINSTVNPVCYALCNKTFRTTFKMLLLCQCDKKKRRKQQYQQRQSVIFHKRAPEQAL
Procedure: (§1) PD102807 and Compounds A-K at concentrations of 1×10^−9 M, 1×10^−8 M, 1×10^−7 M, 1×10^−6 M, and 1×10^−5 M were tested in standard binding assays with radioligands and cell membranes with receptors. Compound binding was calculated as a percent inhibition of the binding of a radioactively labeled ligand specific for each target, and the Ki values were determined. For CHRM1, the binding assay was performed using [^3H]pirenzepine (2 nM) as a radioligand and membranes of CHO cells with human recombinant CHRM1 receptor. The incubation time was 60 minutes at room temperature. For CHRM2, the binding assay was performed using [^3H]AF-DX 384 (2 nM) as a radioligand and membranes of CHO cells with human recombinant CHRM2 receptor. The incubation time was also 60 minutes at room temperature. For CHRM3, the binding assay was performed using [^3H]4-DAMP (0.2 nM) as a radioligand and membranes of CHO cells with human recombinant CHRM3 receptor. The incubation time was also 60 minutes at room temperature. For CHRM4, the binding assay was performed using [^3H]4-DAMP (0.2 nM) as a radioligand and membranes of CHO cells with human recombinant CHRM4 receptor. The incubation time was also 60 minutes at room temperature. For CHRM5, the binding assay was performed using [^3H]4-DAMP (0.3 nM) as a radioligand and membranes of CHO cells with human recombinant CHRM5 receptor. The incubation time was also 60 minutes at room temperature.

[2] = molecular target: T2, human recombinant CHRM1 receptor (Homo sapiens, UniProt P11229); assay: Radioligand binding assay, CHRM1; settings: [3H]pirenzepine (2 nM), CHO cell membranes, 60 minutes at room temperature; read-out: Ki M1
T2 construct: expressed in transfected cells; host or cells: CHO cells (membranes)
T2 sequence (P11229 1-460): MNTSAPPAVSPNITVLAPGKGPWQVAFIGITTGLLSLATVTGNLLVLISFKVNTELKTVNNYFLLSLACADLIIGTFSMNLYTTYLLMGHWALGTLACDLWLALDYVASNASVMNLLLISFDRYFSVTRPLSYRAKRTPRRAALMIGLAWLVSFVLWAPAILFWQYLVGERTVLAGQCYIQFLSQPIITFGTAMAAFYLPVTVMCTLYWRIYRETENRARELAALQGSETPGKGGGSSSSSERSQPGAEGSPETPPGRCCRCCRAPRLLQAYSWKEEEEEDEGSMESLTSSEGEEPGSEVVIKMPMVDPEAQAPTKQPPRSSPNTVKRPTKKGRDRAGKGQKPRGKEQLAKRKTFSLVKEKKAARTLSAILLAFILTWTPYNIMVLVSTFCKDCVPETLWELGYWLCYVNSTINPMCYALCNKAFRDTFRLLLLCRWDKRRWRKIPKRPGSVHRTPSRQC
Procedure: as §1

[3] = molecular target: T3, human recombinant CHRM2 receptor (Homo sapiens, UniProt P08172); assay: Radioligand binding assay, CHRM2; settings: [3H]AF-DX 384 (2 nM), CHO cell membranes, 60 minutes at room temperature; read-out: Ki M2
T3 construct: expressed in transfected cells; host or cells: CHO cells (membranes)
T3 sequence (P08172 1-466): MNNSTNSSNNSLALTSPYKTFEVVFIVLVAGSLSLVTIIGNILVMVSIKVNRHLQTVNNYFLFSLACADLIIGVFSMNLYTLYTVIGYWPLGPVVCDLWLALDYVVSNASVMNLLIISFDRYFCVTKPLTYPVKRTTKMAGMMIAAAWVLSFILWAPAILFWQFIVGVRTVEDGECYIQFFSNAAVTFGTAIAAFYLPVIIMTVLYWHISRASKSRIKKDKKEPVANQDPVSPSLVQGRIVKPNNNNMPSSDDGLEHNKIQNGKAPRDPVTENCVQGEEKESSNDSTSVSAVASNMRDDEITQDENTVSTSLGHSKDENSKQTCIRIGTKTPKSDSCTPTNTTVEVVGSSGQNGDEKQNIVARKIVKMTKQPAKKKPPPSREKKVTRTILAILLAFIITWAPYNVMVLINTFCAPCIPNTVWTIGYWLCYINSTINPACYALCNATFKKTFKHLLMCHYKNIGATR
Procedure: as §1

[4] = Pharmacokinetic profile (plasma) and brain penetration assay; type: in vivo, mouse; settings: mice, intraperitoneal injection, plasma and brain by LC-MS/MS
Procedure: PD102807 and Compounds A and B were intraperitoneally injected into mice. Blood was collected at each time point, and transferred tubes containing anticoagulant were centrifuged to obtain plasma. Brain samples were collected each time point and then quick frozen in liquid nitrogen and kept at −75±15° C. Brain samples were homogenized. Concentrations of PD102807 and Compound A and B in the plasma and brain samples were analyzed using the LC-MS/MS method. […] Compound G was intraperitoneally injected into mice. Blood was collected at each time point, and transferred tubes containing anticoagulant were centrifuged to obtain plasma. Brain samples were collected each time point and then quick frozen in liquid nitrogen and kept at −75±15° C. Brain samples were homogenized. Concentrations of Compound G in the plasma and brain samples were analyzed using the LC-MS/MS method.

CHRM4 = molecular target: T4, CHRM4 (Homo sapiens, UniProt P08173); assay: Radioligand binding assay, CHRM4; set-up: expressed in transfected cells; host or cells: CHO cells (membranes); settings: [3H]4-DAMP (0.2 nM), CHO cell membranes, 60 minutes at room temperature; read-out: Ki M4
T4 sequence (P08173 1-479): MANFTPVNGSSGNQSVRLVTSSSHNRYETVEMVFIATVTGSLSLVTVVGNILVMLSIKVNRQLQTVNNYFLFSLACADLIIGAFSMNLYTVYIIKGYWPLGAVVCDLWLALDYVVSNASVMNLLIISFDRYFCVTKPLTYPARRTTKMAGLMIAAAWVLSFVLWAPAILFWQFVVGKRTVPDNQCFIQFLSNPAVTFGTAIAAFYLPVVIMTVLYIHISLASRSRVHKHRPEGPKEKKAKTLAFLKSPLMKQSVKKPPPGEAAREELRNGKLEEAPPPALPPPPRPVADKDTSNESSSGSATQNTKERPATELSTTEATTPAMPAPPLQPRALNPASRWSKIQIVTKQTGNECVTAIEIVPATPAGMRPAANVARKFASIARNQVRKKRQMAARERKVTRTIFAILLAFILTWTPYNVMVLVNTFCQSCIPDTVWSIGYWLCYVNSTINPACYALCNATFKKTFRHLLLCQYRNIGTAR
Procedure: as §1

Mouse BFU-Es [5] = assay: Primary mouse BFU-E culture assay (cell expansion); type: cell-based
Procedure: (§2) Primary mouse BFU-Es were isolated from mouse embryonic day 14.5 (E14.5) fetal liver and cultured in StemSpan serum-free expansion medium, and the numbers of cells formed were counted during culture. BFU-Es were infected with either viruses encoding control shRNA or viruses encoding shRNAs targeting Chrm4, and numbers of GFP+ cells formed during culture were counted. DMSO or 25 mg/kg oxyphenonium bromide was intraperitoneally injected into the hemolysis mouse model, Mx1-cre Srsf2 P95H/WT MDS mouse model, and aging mouse model. Complete blood count (CBC) was performed after compound injection. CREB ChIP-Seq was performed on BFU-Es after culture with 100 μM oxyphenonium bromide for 45 minutes. RNA-Seq was performed in BFU-Es after being cultured with DMSO or oxyphenonium bromide for 3 days.
BFU-Es were isolated from mouse embryonic day 14.5 fetal liver using fluorescence-activated cell sorting (FACS) method previously described (Flygare et al., Blood 117, 3435-3444 (2011)). BFU-Es were cultured in StemSpan SFEM II medium containing rmSCF (100 ng/ml), EPO (2 U/ml), rmIGF-1 (40 ng/ml), dexamethasone (1 nmol/ml or 10 nmol/ml), oxyphenonium bromide ([…]), and orphenadrine citrate (1 μmol/ml).
BFU-Es were isolated from mouse embryonic day 14.5 fetal liver using fluorescence-activated cell sorting (FACS) method. BFU-Es were cultured in StemSpan SFEM II medium containing rmSCF (100 ng/ml), EPO (2 U/ml), rmIGF-1 (40 ng/ml), dexamethasone (1 nM), together with either DMSO, PCS1055 (5 nM), or PD102807 (3 nM). Numbers of cell formed were counted during in vitro culture.
FIGS. 7 and 8 show the results of the primary BFU-E culture assay. […] Highly purified BFU-Es were isolated as lin-Ter-119-CD16/CD32-Sca-1-CD41-c-Kit+CD71/Cd24a^10% low population using the fluorescence-activated cell sorting (FACS) method. BFU-Es were cultured in medium containing rmSCF, EPO, and rmIGF-1, in the presence of PD102807 or Compounds A-K at indicated concentrations.

Mouse BFU-Es [6] = assay: BFU-E colony formation assay; type: cell-based; settings: Day 6 cultured BFU-Es plated on methylcellulose, colonies counted 9 days later
Mouse BFU-Es [7] = assay: Ter119 antibody staining, flow cytometry; type: cell-based; settings: with or without oxyphenonium bromide, after 12 days of culture
[8] = system: Human CD34+ hematopoietic stem and progenitor cells; assay: Human CD34+ cell culture and counting; type: cell-based; settings: human CD34+ HSPC culture, oxyphenonium bromide (200 μM)
Procedure: Human CD34+ hematopoietic stem and progenitor cells (HSPCs) were cultured in StemSpan™ SFEM medium containing rhSCF (20 ng/ml), rhIL-3 (5 ng/ml) and EPO (1 U/ml) with various concentrations of dexamethasone and oxyphenonium. Total numbers of cells were counted using a flow-cytometer. For colony formation assay, day 8 cultured cells were plated into methylcellulose medium MethoCult™ H4034 Optimum and BFU-E colonies were counted after 13 days.

[9] = system: phosphorylated CREB in BFU-Es; assay: Phospho-CREB immunofluorescence; type: cell-based, mouse; settings: 100 μM oxyphenonium, 45 to 60 min
Procedure: Freshly isolated BFU-Es were serum starved for 1 hour and treated with either DMSO or 100 μM oxyphenonium for 45 to 60 min. 10^4 cells were collected on Poly L-Lysine coated slides using cytospin. Cells were fixed with 2% paraformaldehyde for 15 min, followed with permeabilization using 0.1% Triton X-100 for 15 min and with 2% BSA solution block for 30 min. Cells were incubated with phospho-CREB antibody (phospho […], Abeam, ab32096, 1:250) in 2% BSA for 1 hour and then incubated with FITC conjugated goat anti-mouse secondary antibody (Abcam, ab97022, 1:500) and FITC conjugated goat anti-rabbit secondary antibody (Abcam, ab97050, 1:500) in 2% BSA solution for 30 min. Cells were then incubated with DAPI for 5 min and then mounted with mounting solution.

[10] = system: hemolysis, MDS, and aging mouse models; assay: Hemolysis, MDS and aging anemia mouse models (oxyphenonium bromide); type: in vivo; settings: 25 mg/kg intraperitoneally
Procedure: as §2
4-6 weeks old C57bl/6 mice were intraperitoneally injected with either control DMSO or compound every day for 3 days. On day 4, mice were intraperitoneally injected with 60 mg/kg PHZ. Mice were then intraperitoneally injected with either compound or control DMSO every day for another 3 days. Peripheral blood samples were collected retro-orbitally using heparinized capillary tubes in blood collection tubes with K2-EDTA. CBC was performed using Hemavet® 950. […]

Question: Which Ki [1] does the source give for `CCOC(=O)c1c(C)n(C)c2ccc(OC)c(C[N+]3(C)CCc4cc(OC)ccc4C3)c12.[I-]` (stereo not drawn) [Compound G, 2-((3-(ethoxycarbonyl)-5-methoxy-1,2-dimethyl-1H-indol-4-yl)methyl)-6-methoxy-2-methyl-1,2,3,4-tetrahydroisoquinolin-2-ium Iodide] here?
Answer: 0.4 µM

Question: And the Ki [2]?
Answer: 4.4 µM

Question: And the Ki [3]?
Answer: 0.76 µM

Question: And the “brain penetration in comparison to PD102807” value [4]?
Answer: reduced brain penetration

Question: And the Ki (CHRM4)?
Answer: 1.5 µM

Question: With `CC[N+](C)(CC)CCOC(=O)C(O)(c1ccccc1)C1CCCCC1` (stereo not drawn) [oxyphenonium bromide] as the compound, how does the “production of more erythrocytes from BFU-E” value (Mouse BFU-Es [5]; 100 μM oxyphenonium bromide, vs culture without compound) read?
Answer: ~10 fold

Question: What about the “BFU-E expansion (test of GPCR agonists and antagonists)” value (Mouse BFU-Es [5]; mouse BFU-E culture) of the same compound?
Answer: triggered BFU-E expansion

Question: And the “formation of BFU-E colonies” value (Mouse BFU-Es [6])?
Answer: ~2 fold

Question: What about the “percentage of Ter119+ differentiated cells” value (Mouse BFU-Es [7]) of the same compound?
Answer: no difference

Question: And the “expansion of erythroid cells” value [8]?
Answer: 2 to 4 fold

Question: And the “nuclear localization of phosphorylated CREB” value [9]?
Answer: increase in nuclear localization

Question: And the “correction of anemia in vivo” value [10]?
Answer: corrects anemia in vivo
